By IC50 is commonly meant the concentration at which inhibition is half-maximal.

The record followed here is patent US10221197B2, “Phosphatidylinositol 3-kinase inhibitors” (Gilead Sciences, Inc., priority 2014, dated 2019).

Common to all, as to assay type: biochemical
The target in assay [1] is PI3Kβ (Homo sapiens (Human), UniProt P42338). Description: TR-FRET enzymatic assay of PI3K isoforms (PI3Kβ). The conditions noted are these: TR-FRET, 2×Km ATP, 2 μM PIP2, incubated for 30 minutes at 25° C.; read-out: β IC50. The procedure: (§1) The compounds of formula (I) were characterized for their enzymatic activity against the PI3K isoforms. Certain compounds of the present application, including certain compounds of formula (II) and (III) were also characterized for their enzymatic activity against PI3K isoforms. The activities were measured using a time-resolved fluorescence resonance energy transfer (TR-FRET) assay.
(In general: Time-resolved FRET reads energy transfer from a long-lived donor to a nearby acceptor.)

Assay [2] has as its target PI3Kδ (Homo sapiens (Human), UniProt O00329). As to the kind of experiment: TR-FRET enzymatic assay of PI3K isoforms (PI3Kδ). Particulars: 2×Km ATP, 2 μM PIP2, incubated for 30 minutes at 25° C., read-out: δ IC50. How it is done:
as §1

The target of assay [3] is PI3Kγ (Homo sapiens (Human), UniProt P48736). Description: TR-FRET enzymatic assay of PI3K isoforms (PI3Kγ). Particulars: TR-FRET, 2×Km ATP, 2 μM PIP2, PI3Kγ at 2 nM, incubated for 30 minutes at 25° C.; read-out: γ IC50. How it is done:
as §1

Chain of PI3Kδ (O00329 whole entry, canonical isoform): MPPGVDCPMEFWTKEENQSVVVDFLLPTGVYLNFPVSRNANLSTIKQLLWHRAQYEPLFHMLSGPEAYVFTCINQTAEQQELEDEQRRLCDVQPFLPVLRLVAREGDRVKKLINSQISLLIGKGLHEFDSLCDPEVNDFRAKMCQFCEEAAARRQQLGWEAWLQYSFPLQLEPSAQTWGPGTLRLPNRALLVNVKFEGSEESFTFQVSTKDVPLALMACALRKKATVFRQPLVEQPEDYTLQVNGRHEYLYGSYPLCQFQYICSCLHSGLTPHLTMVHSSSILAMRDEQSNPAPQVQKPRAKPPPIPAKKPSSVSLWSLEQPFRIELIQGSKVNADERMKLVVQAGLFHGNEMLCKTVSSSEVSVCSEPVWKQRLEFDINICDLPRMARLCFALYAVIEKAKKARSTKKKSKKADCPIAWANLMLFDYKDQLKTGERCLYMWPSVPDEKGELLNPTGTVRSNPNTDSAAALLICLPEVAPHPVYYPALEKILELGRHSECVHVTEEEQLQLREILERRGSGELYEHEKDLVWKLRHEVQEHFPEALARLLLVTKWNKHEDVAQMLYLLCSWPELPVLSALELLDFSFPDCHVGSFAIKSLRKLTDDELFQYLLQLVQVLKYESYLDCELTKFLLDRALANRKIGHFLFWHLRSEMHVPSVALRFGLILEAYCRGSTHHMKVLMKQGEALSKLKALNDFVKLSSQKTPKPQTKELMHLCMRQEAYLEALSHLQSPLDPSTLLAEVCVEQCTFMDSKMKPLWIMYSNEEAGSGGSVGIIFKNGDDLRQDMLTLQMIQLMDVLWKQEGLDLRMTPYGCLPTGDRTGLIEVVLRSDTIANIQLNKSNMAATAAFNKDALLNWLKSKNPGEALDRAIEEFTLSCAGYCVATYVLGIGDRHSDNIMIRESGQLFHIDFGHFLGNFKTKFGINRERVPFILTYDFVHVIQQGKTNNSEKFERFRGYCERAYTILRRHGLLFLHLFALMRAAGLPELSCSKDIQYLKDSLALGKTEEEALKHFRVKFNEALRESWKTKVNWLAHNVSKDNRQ
Chain of PI3Kδ (P27986 whole entry partner, canonical isoform): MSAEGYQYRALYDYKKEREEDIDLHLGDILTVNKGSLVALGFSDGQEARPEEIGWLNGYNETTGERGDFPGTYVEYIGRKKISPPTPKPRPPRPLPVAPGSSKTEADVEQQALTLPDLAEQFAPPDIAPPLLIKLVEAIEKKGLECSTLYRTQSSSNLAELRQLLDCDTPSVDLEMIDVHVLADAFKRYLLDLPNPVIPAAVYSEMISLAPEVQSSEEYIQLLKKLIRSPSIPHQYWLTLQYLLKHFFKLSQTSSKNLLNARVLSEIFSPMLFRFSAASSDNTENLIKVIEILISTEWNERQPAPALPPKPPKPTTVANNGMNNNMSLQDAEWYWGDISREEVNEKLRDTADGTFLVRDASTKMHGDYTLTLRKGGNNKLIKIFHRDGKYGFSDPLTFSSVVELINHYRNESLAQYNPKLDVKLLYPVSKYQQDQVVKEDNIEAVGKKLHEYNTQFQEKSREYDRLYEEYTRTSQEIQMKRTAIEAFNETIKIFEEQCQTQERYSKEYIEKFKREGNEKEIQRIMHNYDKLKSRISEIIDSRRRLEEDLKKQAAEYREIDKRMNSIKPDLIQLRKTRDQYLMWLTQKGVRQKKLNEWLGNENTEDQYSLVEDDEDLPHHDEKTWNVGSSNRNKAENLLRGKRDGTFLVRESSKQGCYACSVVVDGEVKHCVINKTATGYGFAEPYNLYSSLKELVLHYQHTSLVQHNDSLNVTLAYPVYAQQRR
Chain of PI3Kβ (P42338 whole entry, canonical isoform): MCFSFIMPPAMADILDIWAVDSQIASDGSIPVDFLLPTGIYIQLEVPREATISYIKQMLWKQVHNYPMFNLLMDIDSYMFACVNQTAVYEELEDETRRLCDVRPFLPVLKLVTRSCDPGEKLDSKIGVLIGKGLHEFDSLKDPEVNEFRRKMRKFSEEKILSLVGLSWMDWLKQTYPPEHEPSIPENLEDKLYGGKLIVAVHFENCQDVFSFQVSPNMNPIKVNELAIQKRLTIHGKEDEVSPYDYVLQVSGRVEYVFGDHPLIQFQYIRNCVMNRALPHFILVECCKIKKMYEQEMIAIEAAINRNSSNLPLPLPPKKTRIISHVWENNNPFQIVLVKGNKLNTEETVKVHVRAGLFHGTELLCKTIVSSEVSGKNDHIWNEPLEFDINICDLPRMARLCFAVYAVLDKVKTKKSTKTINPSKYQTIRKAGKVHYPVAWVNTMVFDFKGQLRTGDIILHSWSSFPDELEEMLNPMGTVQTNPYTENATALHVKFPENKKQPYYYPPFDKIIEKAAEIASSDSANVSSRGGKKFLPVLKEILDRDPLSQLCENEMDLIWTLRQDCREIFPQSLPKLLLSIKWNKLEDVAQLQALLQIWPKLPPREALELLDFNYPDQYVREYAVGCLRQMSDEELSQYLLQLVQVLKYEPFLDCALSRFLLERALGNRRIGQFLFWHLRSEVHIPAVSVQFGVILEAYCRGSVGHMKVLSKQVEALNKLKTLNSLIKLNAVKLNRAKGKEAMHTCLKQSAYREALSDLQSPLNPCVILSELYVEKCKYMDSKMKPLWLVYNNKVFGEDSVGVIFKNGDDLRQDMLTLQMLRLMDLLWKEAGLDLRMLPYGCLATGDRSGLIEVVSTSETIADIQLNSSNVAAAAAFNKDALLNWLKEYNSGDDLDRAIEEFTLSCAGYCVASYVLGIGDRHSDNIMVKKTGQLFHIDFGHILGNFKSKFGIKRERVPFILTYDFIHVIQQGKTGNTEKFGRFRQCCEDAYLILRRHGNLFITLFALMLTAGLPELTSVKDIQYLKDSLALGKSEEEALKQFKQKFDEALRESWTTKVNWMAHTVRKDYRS
Chain of PI3Kβ (P27986 whole entry partner, canonical isoform): as the sequence (P27986 whole entry partner, canonical isoform) above
Chain of PI3Kγ (P48736 whole entry, canonical isoform): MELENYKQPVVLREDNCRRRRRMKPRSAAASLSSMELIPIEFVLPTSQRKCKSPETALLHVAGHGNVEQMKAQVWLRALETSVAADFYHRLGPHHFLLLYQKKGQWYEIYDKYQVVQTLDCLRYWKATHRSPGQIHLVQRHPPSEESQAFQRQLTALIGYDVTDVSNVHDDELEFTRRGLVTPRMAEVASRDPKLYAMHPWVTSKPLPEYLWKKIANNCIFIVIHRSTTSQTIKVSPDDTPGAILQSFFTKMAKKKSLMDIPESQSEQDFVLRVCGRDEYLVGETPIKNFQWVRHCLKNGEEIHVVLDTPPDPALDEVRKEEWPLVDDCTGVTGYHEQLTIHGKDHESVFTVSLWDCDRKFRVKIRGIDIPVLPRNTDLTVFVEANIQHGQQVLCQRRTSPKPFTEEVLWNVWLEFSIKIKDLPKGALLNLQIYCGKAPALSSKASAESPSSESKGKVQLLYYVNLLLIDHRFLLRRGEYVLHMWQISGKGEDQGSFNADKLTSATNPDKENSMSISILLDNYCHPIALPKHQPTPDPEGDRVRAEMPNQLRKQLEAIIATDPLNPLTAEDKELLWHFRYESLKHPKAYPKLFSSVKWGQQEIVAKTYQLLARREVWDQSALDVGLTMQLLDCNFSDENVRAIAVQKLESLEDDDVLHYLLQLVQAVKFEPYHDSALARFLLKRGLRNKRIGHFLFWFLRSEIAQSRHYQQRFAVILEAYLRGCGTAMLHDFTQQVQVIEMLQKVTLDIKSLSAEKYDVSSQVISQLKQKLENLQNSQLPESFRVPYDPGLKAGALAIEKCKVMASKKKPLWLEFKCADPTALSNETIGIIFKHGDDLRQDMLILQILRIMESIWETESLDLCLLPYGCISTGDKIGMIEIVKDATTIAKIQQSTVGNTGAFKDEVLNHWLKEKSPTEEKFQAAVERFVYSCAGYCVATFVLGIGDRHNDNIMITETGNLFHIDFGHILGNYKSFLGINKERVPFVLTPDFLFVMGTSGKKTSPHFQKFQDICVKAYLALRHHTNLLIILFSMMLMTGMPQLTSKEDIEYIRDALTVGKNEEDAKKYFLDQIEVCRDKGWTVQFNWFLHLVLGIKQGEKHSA
Chain of PI3Kγ (Q8WYR1 whole entry partner, canonical isoform): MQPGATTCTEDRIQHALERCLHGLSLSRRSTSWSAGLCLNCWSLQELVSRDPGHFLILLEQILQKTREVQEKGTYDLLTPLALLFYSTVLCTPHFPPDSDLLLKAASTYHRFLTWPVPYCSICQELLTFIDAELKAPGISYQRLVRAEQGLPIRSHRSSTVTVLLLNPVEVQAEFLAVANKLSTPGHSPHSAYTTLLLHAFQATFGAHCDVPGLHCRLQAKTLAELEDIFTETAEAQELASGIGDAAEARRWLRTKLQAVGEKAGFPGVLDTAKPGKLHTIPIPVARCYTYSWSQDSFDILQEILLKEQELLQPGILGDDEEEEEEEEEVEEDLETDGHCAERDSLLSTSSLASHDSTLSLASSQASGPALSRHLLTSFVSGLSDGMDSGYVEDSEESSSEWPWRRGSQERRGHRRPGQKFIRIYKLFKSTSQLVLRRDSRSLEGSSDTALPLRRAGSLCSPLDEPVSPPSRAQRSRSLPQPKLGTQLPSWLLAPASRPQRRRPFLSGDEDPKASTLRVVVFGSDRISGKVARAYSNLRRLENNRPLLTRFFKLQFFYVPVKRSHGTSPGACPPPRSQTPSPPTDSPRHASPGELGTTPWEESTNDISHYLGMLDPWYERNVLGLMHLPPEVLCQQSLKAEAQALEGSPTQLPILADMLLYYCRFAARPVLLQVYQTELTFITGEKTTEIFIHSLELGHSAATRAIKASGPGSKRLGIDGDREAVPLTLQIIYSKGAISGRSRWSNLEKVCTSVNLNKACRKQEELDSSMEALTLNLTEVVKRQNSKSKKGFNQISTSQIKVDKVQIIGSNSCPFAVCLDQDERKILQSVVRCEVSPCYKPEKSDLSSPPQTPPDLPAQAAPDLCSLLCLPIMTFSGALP

With `NC(=O)c1cccc(-n2c([C@@H](Nc3nc(N)nc(N)c3Cl)C3CC3)nc3c(Cl)cc(F)cc3c2=O)c1` [Compound 28, (S)-3-(8-chloro-2-(cyclopropyl((2,6-diamino-5-chloropyrimidin-4-yl)amino)methyl)-6-fluoro-4-oxoquinazolin-3(4H)-yl)benzamide], the IC50 in assay [1] is 267 nM; in assay [2], 46 nM; in assay [3], more than 10000 nM.

For the molecule `C[C@H](Nc1nc(N)nc(N)c1Cl)c1nc2c(Cl)cc(F)cc2c(=O)n1-c1cccc(C(N)=O)c1` [Compound 30, (S)-3-(8-chloro-2-(1-((2,6-diamino-5-chloropyrimidin-4-yl)amino)ethyl)-6-fluoro-4-oxoquinazolin-3(4H)-yl)benzamide], the IC50 in assay [1] is 252 nM; in assay [2], 22 nM; in assay [3], more than 10000 nM.

Turning to `C[C@H](Nc1nc(N)nc(N)c1C#N)c1nc2c(C#N)cc(F)cc2c(=O)n1-c1cccc(C(N)=O)c1` [Compound 31, (S)-3-(8-cyano-2-(1-((2,6-diamino-5-cyanopyrimidin-4-yl)amino)ethyl)-6-fluoro-4-oxoquinazolin-3(4H)-yl)benzamide], the IC50 in assay [1] is 21 nM; in assay [2] it was 2 nM; in assay [3] it was 1100 nM.

Take `N#Cc1c(N)nc(N)nc1N[C@H](c1nc2c(C#N)cc(F)cc2c(=O)n1-c1cccc(C(N)=O)c1)C1CC1` [Compound 32, (S)-3-(8-cyano-2-(cyclopropyl((2,6-diamino-5-cyanopyrimidin-4-yl)amino)methyl)-6-fluoro-4-oxoquinazolin-3(4H)-yl)benzamide]: the IC50 in assay [1] was determined as 25 nM; in assay [2] it was 4 nM; in assay [3], 1800 nM.

`CC[C@H](Nc1nc(N)nc(N)c1C#N)c1nc2cccc(C(F)F)c2c(=O)n1-c1cccc(C(N)=O)c1` [Compound 33, (S)-3-(2-(1-((2,6-diamino-5-cyanopyrimidin-4-yl)amino)propyl)-5-(difluoromethyl)-4-oxoquinazolin-3(4H)-yl)benzamide]: the IC50 was found to be 4 nM in assay [1], 0.8 nM in assay [2] and 380 nM in assay [3].

Take `CC[C@H](Nc1nc(N)nc(N)c1Cl)c1nc2cccc(C(F)F)c2c(=O)n1-c1cccc(C(N)=O)c1` [Compound 34, (S)-3-(2-(1-((2,6-diamino-5-chloropyrimidin-4-yl)amino)propyl)-5-(difluoromethyl)-4-oxoquinazolin-3(4H)-yl)benzamide]: the IC50 in assay [1] was 22 nM; in assay [2], 3 nM; in assay [3], 5000 nM.

Consider `N#Cc1c(N)nc(N)nc1N[C@H](c1nc2cccc(C(F)F)c2c(=O)n1-c1cccc(C(N)=O)c1)C1CC1` [Compound 35, (S)-3-(2-(cyclopropyl((2,6-diamino-5-cyanopyrimidin-4-yl)amino)methyl)-5-(difluoromethyl)-4-oxoquinazolin-3(4H)-yl)benzamide], for which the IC50 is 5 nM in assay [1], 1 nM in assay [2] and 200 nM in assay [3].

Regarding `C[C@H](Nc1nc(N)nc(N)c1Cl)c1nc2c(C#N)cccc2c(=O)n1-c1cccc(C(N)=O)c1` [Compound 36, (S)-3-(8-cyano-2-(1-((2,6-diamino-5-chloropyrimidin-4-yl)amino)ethyl)-4-oxoquinazolin-3(4H)-yl)benzamide], the IC50 in assay [1] is 299 nM; in assay [2] it was 10 nM; in assay [3] it was more than 10000 nM.

As for `C[C@H](Nc1ncnc(N)c1C#Cc1cnccn1)c1nc2cccc(Cl)c2c(=O)n1-c1cccc(C(N)=O)c1` [Compound 37, (S)-3-(2-(1-((6-amino-5-(pyrazin-2-ylethynyl)pyrimidin-4-yl)amino)ethyl)-5-chloro-4-oxoquinazolin-3(4H)-yl)benzamide], the IC50 is 243 nM in assay [1], 7 nM in assay [2] and more than 10000 nM in assay [3].

As for `C[C@H](Nc1ncnc(N)c1C#Cc1ccccn1)c1nc2cccc(Cl)c2c(=O)n1-c1cccc(C(N)=O)c1` [Compound 38, (S)-3-(2-(1-((6-amino-5-(pyridin-2-ylethynyl)pyrimidin-4-yl)amino)ethyl)-5-chloro-4-oxoquinazolin-3(4H)-yl)benzamide], the values for the IC50 in assay [1], in assay [2] and in assay [3] were 52 nM, 1 nM and 1500 nM, respectively.

As for `CCNC(=O)Nc1cccc(-n2c([C@@H](Nc3ncnc(N)c3[N+](=O)[O-])[C@@H](C)CC)nc3cccc(Cl)c3c2=O)c1` [Compound 43, 1-(3-(2-((1S,2S)-1-((6-amino-5-nitropyrimidin-4-yl)amino)-2-methylbutyl)-5-chloro-4-oxoquinazolin-3(4H)-yl)phenyl)-3-ethylurea], the results for the IC50 in assay [1], in assay [2] and in assay [3] were 18 nM, 13 nM and more than 10000 nM, respectively.

Take `CCNC(=O)Nc1cccc(-n2c([C@H](C)Nc3ncnc(N)c3C#N)nc3cccc(Br)c3c2=O)c1` [Compound 45, (S)-1-(3-(2-(1-((6-amino-5-cyanopyrimidin-4-yl)amino)ethyl)-5-bromo-4-oxoquinazolin-3(4H)-yl)phenyl)-3-ethylurea]: the IC50 stood at 6 nM in assay [1], 2 nM in assay [2] and 1800 nM in assay [3].

As to `C=CCc1cccc2nc([C@H](C)Nc3ncnc(N)c3C#N)n(-c3cccc(NC(=O)NCC)c3)c(=O)c12` [Compound 46, (S)-1-(3-(5-allyl-2-(1-((6-amino-5-cyanopyrimidin-4-yl)amino)ethyl)-4-oxoquinazolin-3(4H)-yl)phenyl)-3-ethylurea], the values for the IC50 in assay [1], in assay [2] and in assay [3] were 35 nM, 17 nM and more than 10000 nM, respectively.

Turning to `CCNC(=O)Nc1cccc(-n2c([C@H](C)Nc3ncnc(N)c3C#N)nc3cccc(F)c3c2=O)c1` [Compound 47, (S)-1-(3-(2-(1-((6-amino-5-cyanopyrimidin-4-yl)amino)ethyl)-5-fluoro-4-oxoquinazolin-3(4H)-yl)phenyl)-3-ethylurea], the IC50 was 36 nM in assay [1], 26 nM in assay [2] and more than 10000 nM in assay [3].

`CCNC(=O)Nc1cccc(-n2c([C@H](C)Nc3ncnc(N)c3C#N)nc3c(Cl)ccc(Cl)c3c2=O)c1` [Compound 48, (S)-1-(3-(2-(1-((6-amino-5-cyanopyrimidin-4-yl)amino)ethyl)-5,8-dichloro-4-oxoquinazolin-3(4H)-yl)phenyl)-3-ethylurea]: the IC50 in assay [1] is 7 nM; in assay [2], 3 nM; in assay [3] it was more than 10000 nM.

Regarding `CCNC(=O)Nc1cccc(-n2c([C@H](C)Nc3ncnc(N)c3C#N)nc3c(F)cccc3c2=O)c1` [Compound 49, (S)-1-(3-(2-(1-((6-amino-5-cyanopyrimidin-4-yl)amino)ethyl)-8-fluoro-4-oxoquinazolin-3(4H)-yl)phenyl)-3-ethylurea], the IC50 in assay [1] is 230 nM; in assay [2], 24 nM; in assay [3], more than 10000 nM.

For `CCNC(=O)Nc1cccc(-n2c([C@H](C)Nc3ncnc(N)c3C#N)nc3c(F)ccc(F)c3c2=O)c1` [Compound 50, (S)-1-(3-(2-(1-((6-amino-5-cyanopyrimidin-4-yl)amino)ethyl)-5,8-difluoro-4-oxoquinazolin-3(4H)-yl)phenyl)-3-ethylurea], the results for the IC50 in assay [1], in assay [2] and in assay [3] were 84 nM, 22 nM and more than 10000 nM, respectively.
